Results reported in US10835542B2, “9-aminomethyl minocycline compounds and use thereof in treating community-acquired bacterial pneumonia (CABP)” (Paratek Pharmaceuticals, Inc., priority 2016, dated 2020).
Like-named read-outs stand apart in the source and are kept apart here.

Columns and labels:
[1] = test system: Staphylococcus aureus; assay type: in vivo, human; details: PTE, microITT
[2] = test system: Haemophilus influenzae; test: Clinical success at PTE by baseline pathogen, microITT; assay type: in vivo, human; details: N1 = 32 (Compound 1), 16 (Moxifloxacin)
[3] = Phase 1 multiple oral dose study: safety and tolerability; details: for Most frequent TEAEs: ALT increased, n (%) / Most frequent TEAEs: Diarrhea, n (%) / Most frequent TEAEs: Dizziness, n (%) / Most frequent TEAEs: Nausea, n (%) / Most frequent TEAEs: Vomiting, n (%) / TEAEs leading to early discontinuation of study drug: ALT increased, n (%) / TEAEs leading to early discontinuation of study drug: All, n (%) / TEAEs leading to early discontinuation of study drug: Lipase increased, n (%) / TEAEs leading to early discontinuation of study drug: Nausea, n (%) / TEAEs leading to early discontinuation of study drug: Syncope, n (%) / TEAEs leading to early discontinuation of study drug: Vomiting, n (%) / n (%) of subjects with Any TEAE / n (%) of subjects with Treatment-related TEAE: Safety Population

In the case of `CN(C)c1cc(CNCC(C)(C)C)c(O)c2c1C[C@H]1C[C@H]3[C@H](N(C)C)C(O)=C(C(N)=O)C(=O)[C@@]3(O)C(O)=C1C2=O` [Compound 1, 9-[(2,2-dimethyl-propylamino)-methyl]-minocycline], the “Clinical Success n (%)” value ([1]; Staphylococcus aureus MRSA, N1 = 0 (Compound 1), 1 (Moxifloxacin)) is reported as 0 n (%), the “Clinical Success n (%)” value ([1]; Staphylococcus aureus MSSA, N1 = 11 (Compound 1), 10 (Moxifloxacin)) is reported as 8 (72.7) n (%) and the “Clinical Success n (%)” value ([1]; baseline pathogen Staphylococcus aureus, N1 = 11 (Compound 1), 11 (Moxifloxacin)) is reported as 8 (72.7) n (%). For the same compound, the “Clinical Success n (%)” value [2] was 26 (81.3) n (%), the “frequency of treatment-related TEAEs” value ([3]; 300 mg) was 15.4% and the “median change in alanine aminotransferase (ALT) between baseline and Day 5” value (“median change” for short) ([3]; 300 mg) was −2.0 IU/L. The “Most frequent TEAEs: ALT increased, n (%)” value ([3]; 300 mg (n = 26)) was 0 n (%), the “Most frequent TEAEs: Diarrhea, n (%)” value ([3]; 300 mg (n = 26)) was 0 n (%) and the “Most frequent TEAEs: Dizziness, n (%)” value ([3]; 300 mg (n = 26)) was 2 (7.7) n (%). The “Most frequent TEAEs: Nausea, n (%)” value ([3]; 300 mg (n = 26)) was 2 (7.7) n (%), the “Most frequent TEAEs: Vomiting, n (%)” value ([3]; 300 mg (n = 26)) was 2 (7.7) n (%) and the “TEAEs leading to early discontinuation of study drug: ALT increased, n (%)” value (“TEAEs leading … ALT increased, n (%)” below) ([3]; 300 mg (n = 26)) was 0 n (%). For the same compound, the “TEAEs leading to early discontinuation of study drug: All, n (%)” value (“TEAEs leading … All, n (%)” for short) ([3]; 300 mg (n = 26)) was 1 (3.8) n (%), the “TEAEs leading to early discontinuation of study drug: Lipase increased, n (%)” value (shortened to “TEAEs leading … Lipase increased, n (%)”) ([3]; 300 mg (n = 26)) was 0 n (%) and the “TEAEs leading to early discontinuation of study drug: Nausea, n (%)” value (“TEAEs leading … Nausea, n (%)” for short) ([3]; 300 mg (n = 26)) was 1 (3.8) n (%). The “TEAEs leading to early discontinuation of study drug: Syncope, n (%)” value (from here on “TEAEs leading … Syncope, n (%)”) ([3]; 300 mg (n = 26)) was 0 n (%), the “TEAEs leading to early discontinuation of study drug: Vomiting, n (%)” value (shortened to “TEAEs leading … Vomiting, n (%)”) ([3]; 300 mg (n = 26)) was 1 (3.8) n (%) and the “n (%) of subjects with Any TEAE” value ([3]; 300 mg (n = 26)) was 5 (19.2) n (%). The “n (%) of subjects with Treatment-related TEAE” value ([3]; 300 mg (n = 26)) was 4 (15.4) n (%), the “frequency of treatment-related TEAEs” value ([3]; 450 mg) was 8.3% and the “median change” value ([3]; 450 mg) was 5.0 IU/L. The “Most frequent TEAEs: ALT increased, n (%)” value ([3]; 450 mg (n = 24)) was 1 (4.2) n (%), the “Most frequent TEAEs: Diarrhea, n (%)” value ([3]; 450 mg (n = 24)) was 0 n (%) and the “Most frequent TEAEs: Dizziness, n (%)” value ([3]; 450 mg (n = 24)) was 0 n (%). The “Most frequent TEAEs: Nausea, n (%)” value ([3]; 450 mg (n = 24)) was 1 (4.2) n (%), the “Most frequent TEAEs: Vomiting, n (%)” value ([3]; 450 mg (n = 24)) was 0 n (%) and the “TEAEs leading … ALT increased, n (%)” value ([3]; 450 mg (n = 24)) was 1 (4.2) n (%). For the same compound, the “TEAEs leading … All, n (%)” value ([3]; 450 mg (n = 24)) was 1 (4.2) n (%), the “TEAEs leading … Lipase increased, n (%)” value ([3]; 450 mg (n = 24)) was 0 n (%) and the “TEAEs leading … Nausea, n (%)” value ([3]; 450 mg (n = 24)) was 0 n (%). For the same compound, the “TEAEs leading … Syncope, n (%)” value ([3]; 450 mg (n = 24)) was 0 n (%), the “TEAEs leading … Vomiting, n (%)” value ([3]; 450 mg (n = 24)) was 0 n (%) and the “n (%) of subjects with Any TEAE” value ([3]; 450 mg (n = 24)) was 3 (12.5) n (%). The “n (%) of subjects with Treatment-related TEAE” value ([3]; 450 mg (n = 24)) was 2 (8.3) n (%), the “frequency of treatment-related TEAEs” value ([3]; 600 mg) was 25.0% and the “median change” value ([3]; 600 mg) was 19.5 IU/L. The reports of diarrhea ([3]; 600 mg) was 2, the “Most frequent TEAEs: ALT increased, n (%)” value ([3]; 600 mg (n = 24)) was 1 (4.2) n (%) and the “Most frequent TEAEs: Diarrhea, n (%)” value ([3]; 600 mg (n = 24)) was 2 (8.3) n (%). The “Most frequent TEAEs: Dizziness, n (%)” value ([3]; 600 mg (n = 24)) was 1 (4.2) n (%), the “Most frequent TEAEs: Nausea, n (%)” value ([3]; 600 mg (n = 24)) was 4 (16.7) n (%) and the “Most frequent TEAEs: Vomiting, n (%)” value ([3]; 600 mg (n = 24)) was 1 (4.2) n (%). The “TEAEs leading … ALT increased, n (%)” value ([3]; 600 mg (n = 24)) was 0 n (%), the “TEAEs leading … All, n (%)” value ([3]; 600 mg (n = 24)) was 1 (4.2) n (%) and the “TEAEs leading … Lipase increased, n (%)” value ([3]; 600 mg (n = 24)) was 1 (4.2) n (%). The “TEAEs leading … Nausea, n (%)” value ([3]; 600 mg (n = 24)) was 0 n (%), the “TEAEs leading … Syncope, n (%)” value ([3]; 600 mg (n = 24)) was 0 n (%) and the “TEAEs leading … Vomiting, n (%)” value ([3]; 600 mg (n = 24)) was 0 n (%). For the same compound, the “n (%) of subjects with Any TEAE” value ([3]; 600 mg (n = 24)) was 6 (25.0) n (%), the “n (%) of subjects with Treatment-related TEAE” value ([3]; 600 mg (n = 24)) was 6 (25.0) n (%) and the TEAE nausea ([3]; 600 mg group) was 16.7%. For the same compound, the “tolerability of multiple doses” value ([3]; 300, 450 and 600 mg once daily for 5 days) was “generally well-tolerated”, the TEAE nausea ([3]; 300 and 450 mg dose groups) was no more than 7.7% and the “Most frequent TEAEs: ALT increased, n (%)” value ([3]; Omadacycline Overall (n = 26)) was 2 (7.7) n (%). The “Most frequent TEAEs: Diarrhea, n (%)” value ([3]; Omadacycline Overall (n = 26)) was 2 (7.7) n (%), the “Most frequent TEAEs: Dizziness, n (%)” value ([3]; Omadacycline Overall (n = 26)) was 3 (11.5) n (%) and the “Most frequent TEAEs: Nausea, n (%)” value ([3]; Omadacycline Overall (n = 26)) was 6 (23.1) n (%). For the same compound, the “Most frequent TEAEs: Vomiting, n (%)” value ([3]; Omadacycline Overall (n = 26)) was 3 (11.5) n (%) and the “TEAEs leading … ALT increased, n (%)” value ([3]; Omadacycline Overall (n = 26)) was 1 (3.8) n (%).
